# Reference: patent US12157713B2, “Conjugated oligoelectrolytes as antimicrobial agents” (Nanyang Technological University, priority 2018, dated 2024)
# “And” between values parts separate entries of the source, which are not always exact repeats. Equal entries are not always repeated. Where two headings read alike, the source gives them in different places.
# Columns and labels:
# [1] = test system: organism classes (Gram-negative, Gram-positive and fungi); assay: Single-dose screening summary by organism class; assay type: cell-based; settings: 32 μg/mL; 0 = no activity
# Experimental: (§1) Percentage growth inhibition of an individual sample was calculated based on growth in a reference well determined from negative controls (media only) and positive controls (bacterial/fungal media without inhibitors). Negative inhibition values indicate that the growth rate (or OD600) is higher compared to the reference growth (bacteria/fungi only, set to 0% inhibition). The growth rates for all bacteria and fungi may vary at −/+10%, which were within the reported normal distribution of bacterial/fungal growth. Any significant variations (or outliers/hits) were identified by the modified Z-Score, and the active compounds were selected by a combination of inhibition values and Z-Score.
# Z-Score analysis was carried out to investigate outliers or hits among the samples. The Z-Score was calculated based on the sample population using a modified Z-Score method which accounts for possible skewed sample population. The modified method uses median and MAD ([…]) instead of average and standard deviation, and a scaling factor (Iglewicz, B. & Hoaglin, D. C. Volume 16: How to Detect and Handle Outliers. The ASQC Basic Reference in Quality Control: Statistical Techniques, 1993). The equation to calculate the modified Z-Score value is as follow: […]
# (§2) A M(i) value of >|2.5| (absolute) would classify the sample as outliers or hits. Active samples were denoted as compounds with inhibition values equal to or above 80% and absolute Z-Score above |2.5| for either replicate (n=2 on different plates). Partial active samples were denoted as compounds with inhibition values from 50% to <80%, or absolute Z-Score below |2.5|.
# [2] = test system: Escherichia coli FDA control ATCC 25922; assay: Single-dose growth inhibition, Ec; assay type: cell-based
# Experimental: (§3) Inhibition of bacterial growth was determined by measuring the absorbance at 600 nm (OD600), using a Tecan M1000 Pro monochromator plate reader. Growth inhibition was calculated for each well, relative to the reference growths determined from a negative control (media only) and positive control (bacteria without inhibitors) incubated in the same plate. A single dose of 32 μg/mL of COE (final concentration) was used for each test.
# as §1, §2
# [3] = test system: E. coli K12; assay: MIC by broth microdilution against E. coli K12; assay type: cell-based; settings: Escherichia coli, read-out: MIC against E. coli K12
# Experimental: The respective minimum inhibition concentration (MIC) of each COE molecule was determined using a broth microdilution method. Briefly, COEs were diluted via a 2-fold dilution series in 100 μL of either Muller Hinton Broth (MHB) for E. coli and S. aureus or Brain Heart Infusion Broth (BHI) for E. faecalis in a 96-well plate to achieve the desired final concentration. Subsequently, each well was inoculated with 100 μL of 1×10^6 colony forming units (CFU) mL^−1 of the respective microorganism in MHB for E. coli or BHI for E. faecalis to achieve an inoculum density of 5×10^5 CFU mL^−1. The plates were then incubated at 37° C. with shaking (200 rpm) for 18 hrs. […] The results were obtained in triplicate.
# The MIC values of COE-D4, COE-D6 and COE-D8 against the reference strain E. coli K12, pathogenic E. coli UT189, and the Gram positive pathogen Enterococcus faecalis OG1RF were determined using a broth microdilution method as described in the general method above. The MICs for E. coli K12 were determined to be 128, 16, and 4 μg mL^−1 for COE-D4, COE-D6, and COE-D8, respectively (FIG. 5a). […] This is not surprising as these two organisms differ in the capsular polysaccharides that they expressed, which are known to hinder the uptake of antimicrobials and mitigate their potency (M. A. Campos, et al., Infect. Immun. 2004, 72, 7107-7114). A K-type capsid comprising α2-8-linked sialic acid is excreted by UT189 and is known to be an important virulence factor for this organism (C. Whitfield, et al., Mol. Microbiol. 1999, 31, 1307-1319; G. G. Anderson, et al., Infect. Immun. 2010, 78, 963-975).
# [4] = test system: Staphylococcus aureus MRSA ATCC 43300; assay: Single-dose growth inhibition, Sa; assay type: cell-based
# Experimental: as §3, §1, §2
# [5] = test system: Cryptococcus neoformans var. grubii H99; ATCC 208821; assay: Single-dose growth inhibition, Cn; assay type: cell-based
# Experimental: (§4) Growth inhibition of C. albicans was determined by measuring the absorbance at 530 nm (OD530), while the growth inhibition of C. neoformans was determined by measuring the difference in absorbance between 600 and 570 nm (OD600-570), after the addition of resazurin (0.001 wt. % final concentration) and incubation at 35° C. for additional 2 hrs. The absorbance was measured using a Biotek Synergy HTX plate reader. The relative growth inhibition was calculated for each well, relative to that determined from a negative control (media only) and positive control (bacteria without inhibitors) on the same plate as references. A single dose of 32 μg/mL of COE (final concentration) was used for each test.
# as §1, §2
# [6] = test system: Klebsiella pneumoniae MDR ATCC 700603; assay: Single-dose growth inhibition, Kp; assay type: cell-based
# Experimental: as §3, §1, §2
# [7] = test system: Pseudomonas aeruginosa ATCC 27853; assay: Single-dose growth inhibition, Pa; assay type: cell-based
# Experimental: as §3, §1, §2
# [8] = test system: Candida albicans ATCC 90028; assay: Single-dose growth inhibition, Ca; assay type: cell-based
# Experimental: as §4, §1, §2
# [9] = test system: Acinetobacter baumannii ATCC 19606; assay: Single-dose growth inhibition, Ab; assay type: cell-based
# Experimental: as §3, §1, §2
# [10] = test system: E. coli K12; assay: Cellular uptake by E. coli K12 (absorption spectroscopy); assay type: cell-based, Escherichia coli; settings: 10 μg/mL COE in PBS, OD=0.5, 2 hrs, room temperature
# Experimental: The relative membrane affinity of COE-D4, COE-D6 and COE-D8 was estimated from the quantity taken up by cells using absorption spectroscopy. After cultures of E. coli K12 were grown in MHB at 37° C., the cells were harvested by centrifugation (6000 rpm, 5 min) and washed twice with PBS solution (pH=7.2). The cells were then resuspended in PBS and with the density adjusted to OD=1.0. Thereafter, 5 mL of this cell suspension was mixed with an equal volume of 20 μg/mL of COE in PBS to achieve a final concentration of 10 μg/mL (in triplicates). After exposure to COEs for 2 hrs at room temperature and with shaking (200 rpm), the cells were removed by centrifugation and the supernatant was collected for absorbance scans to quantify the remaining COE in the supernatant. The uptake quantity was estimated by comparing the absorbance of the supernatant to the corresponding control COE solution (i.e. 10 μg/mL in PBS). The procedure for uptake measurements at the lower temperature is similar to the one described above, but with the exposure to COEs and centrifugation occurring at 4° C. instead of room temperature
# The effect of molecular structures of the COEs on relative membrane affinity, estimated from the amount taken up by E. coli K12, was measured by absorption spectroscopy (FIG. 8a-c). These experiments utilised cell suspensions (OD=0.5) incubated for 2 hrs with 10 μg mL^−1 of various COE. Cells were removed by centrifugation, and the amount of uncomplexed COE was determined from the optical absorption spectra. The longest molecule, COE-D8, achieved the highest uptake in bacteria (72%). In contrast, only 3% of COE-D4 was absorbed while the uptake for COE-D6 was 16% (Table 1a).
# Parallel experiments were carried out at 4° C. […] As a result of the reduced fluidity of cellular membrane at lower temperature, the uptake decreased to around 1% for COE-D4, 5% for COE-D6, and 34% for COE-D8.
# [11] = Solubility in PBS / aqueous solubility; assay type: physicochemical
# [12] = test system: Pseudomonas aeruginosa (PAO1) biofilm; assay: Anti-biofilm assay (MBEC plate, crystal violet); assay type: cell-based; settings: P. aeruginosa PAO1 biofilm, 1 hour challenge in M9GC
# Experimental: Pseudomonas aeruginosa (PAO1) was grown in Luria-Bertani (LB) broth under shaking (200 rpm) at 37° C. for 16-18 hours. The overnight culture was diluted to 1:200 in M9GC media (M9 medium supplemented with glucose and casamino acids), and 200 μL of diluted culture was added to each well of MBEC plate (Innovotech, Canada). After incubating at 37° C. for 5 hours under shaking (200 rpm), biofilm was formed on the pegs of the MBEC plate. The pegs were then rinsed with 1× phosphate buffered saline (PBS) solution (200 μL per well), and exposed to a two-fold dilution series of COE in M9GC media (200 μL per well). The challenge plate was incubated at 37° C. for 1 hour under shaking (200 rpm), and then the pegs were washed using 200 μL PBS before being dipped into 180 μL 0.1 wt. % crystal violet aqueous solution. After incubating at room temperature for 15 minutes, the pegs were rinsed with PBS twice and transferred to a plate containing 200 μL absolute ethanol in each well for 15 minutes. The biofilm mass was quantified by measuring the absorption of crystal violet/ethanol solution at 550 nm. The minimum biofilm dispersal concentration (MBDC) values were determined as the lowest COE concentration at which biofilm attached on the peg was completely dispersed. The results were repeated in triplicate.
# [13] = ATCC25922, 32 μg/mL single dose, n=2, read-out: Growth inhibition Ec
# [14] = K12, broth microdilution, MHB, 18 hrs
# [15] = 32 μg/mL single dose, n=2, read-out: Growth inhibition Sa
# [16] = ATCC208821, 32 μg/mL single dose, n=2, read-out: Growth inhibition Cn
# [17] = ATCC700603, 32 μg/mL single dose, n=2, read-out: Growth inhibition Kp
# [18] = ATCC27853, 32 μg/mL single dose, n=2, read-out: Growth inhibition Pa
# [19] = ATCC90028, 32 μg/mL single dose, n=2, read-out: Growth inhibition Ca
# [20] = ATCC19606, 32 μg/mL single dose, n=2, read-out: Growth inhibition Ab
# [21] = aqueous buffer, in PBS, read-out: Solubility in PBS
"MIC [3, 14]",SMILES,Activity: number of organism classes the compound has been found active against [1],"inhibition at 32 µg/mL [2, 13]","inhibition at 32 µg/mL [4, 15]","inhibition at 32 µg/mL [5, 16]","inhibition at 32 µg/mL [6, 17]","inhibition at 32 µg/mL [7, 18]","inhibition at 32 µg/mL [8, 19]","inhibition at 32 µg/mL [9, 20]",further results
32 µg/mL,C[N+](C)(C)CCCCOc1ccc(/C=C/c2ccc(/C=C/c3ccc(OCCCC[N+](C)(C)C)cc3)cc2)cc1 [COE-T4],2,< 50%,> 80%,> 80%,< 50%,< 50%,> 80%,50 to 80%,"Uptake by E. coli K12 [10]: 75±5% and 80%; solubility [11, 21]: 210 µg/mL; solubility ([11]; aqueous solution, read-out: aqueous solubility): 210 µg/mL"
8 µg/mL,CN(C)CC[N+](C)(C)CCCCOc1ccc(/C=C/c2ccc(/C=C/c3ccc(OCCCC[N+](C)(C)CCN(C)C)cc3)cc2)cc1 [COE-T42N],3,> 80%,> 80%,> 80%,< 50%,< 50%,> 80%,> 80%,–
64 µg/mL,CN(C)CC[N+](C)(C)CCCCCCOc1ccc(/C=C/c2ccc(/C=C/c3ccc(OCCCCCC[N+](C)(C)CCN(C)C)cc3)cc2)cc1 [COE-T62N],2,< 50%,> 80%,> 80%,< 50%,< 50%,> 80%,> 80%,–

# The remaining lines, values behind:
SMILES,"MIC [3, 14]",Activity: number of organism classes the compound has been found active against [1],"inhibition at 32 µg/mL [2, 13]","inhibition at 32 µg/mL [4, 15]","inhibition at 32 µg/mL [5, 16]","inhibition at 32 µg/mL [6, 17]","inhibition at 32 µg/mL [7, 18]","inhibition at 32 µg/mL [8, 19]","inhibition at 32 µg/mL [9, 20]",further results
C[N+](C)(C)CC[N+](C)(C)CCCCOc1ccc(/C=C/c2ccc(OCCCC[N+](C)(C)CC[N+](C)(C)C)cc2)cc1 [COE-D42],–,1,–,–,–,–,–,–,–,"inhibition at 32 µg/mL ([2]; ATCC25922, read-out: Growth inhibition Ec): < 50%; MIC ([3]; K12, 18 h): 128 µg/mL; inhibition at 32 µg/mL ([4]; read-out: Growth inhibition Sa): > 80%; inhibition at 32 µg/mL ([5]; ATCC208821, read-out: Growth inhibition Cn): < 50%; inhibition at 32 µg/mL ([6]; ATCC700603, read-out: Growth inhibition Kp): < 50%; inhibition at 32 µg/mL ([7]; ATCC27853, read-out: Growth inhibition Pa): < 50%; inhibition at 32 µg/mL ([8]; ATCC90028, read-out: Growth inhibition Ca): < 50%; inhibition at 32 µg/mL ([9]; ATCC19606, read-out: Growth inhibition Ab): < 50%"
C[N+](C)(C)CC[N+](C)(C)CCCCCCOc1ccc(/C=C/c2ccc(OCCCCCC[N+](C)(C)CC[N+](C)(C)C)cc2)cc1 [COE-D62],16 µg/mL,3,> 80%,> 80%,> 80%,> 80%,< 50%,< 50%,> 80%,–
C[N+](C)(C)CC[N+](C)(C)CCCCCCCCOc1ccc(/C=C/c2ccc(OCCCCCCCC[N+](C)(C)CC[N+](C)(C)C)cc2)cc1 [COE-D82],32 µg/mL,3,> 80%,> 80%,> 80%,50 to 80%,> 80%,> 80%,50 to 80%,–
C[N+](C)(C)CCCCCCOc1ccc(/C=C/c2ccc(/C=C/c3ccc(OCCCCCC[N+](C)(C)C)cc3)cc2)cc1 [COE-T6],> 16 µg/mL,2,< 50%,> 80%,> 80%,< 50%,< 50%,> 80%,< 50%,"Uptake by E. coli K12 [10]: 89%; solubility [11, 21]: 76 µg/mL"
CC(C)(O/N=C(\C(=O)N[C@@H]1C(=O)N2C(C(=O)[O-])=C(C[n+]3ccccc3)CS[C@H]12)c1csc(N)n1)C(=O)O [Ceftazidime],–,–,–,–,–,–,–,–,–,Minimum biofilm dispersal concentration [12]: >512 µg/mL
